Reference: ChEMBL document CHEMBL4020848, “Antibacterial Activity Affected by the Conformational Flexibility in Glycine-Lysine Based α-Helical Antimicrobial Peptides” (J Med Chem, 2018)
Converted amounts (≈) assume the structure as drawn. The source made the active and inactive calls. No cut-off for these calls is given here.

Key:
[1] = system: Escherichia coli; experiment: Antibacterial activity against Escherichia coli ATCC 25922 after 18 hrs by microdilution method; assay type: functional; settings: ATCC 25922, 18 h
[2] = system: Escherichia coli; experiment: Antibacterial activity against clinical isolates of Escherichia coli after 18 hrs by microdilution method; assay type: functional
[3] = system: Acinetobacter baumannii; experiment: Antibacterial activity against Acinetobacter baumannii ATCC 19606 after 18 hrs by microdilution method; assay type: functional; settings: ATCC 19606 = CIP 70.34 = JCM 6841, 18 h
[4] = system: Acinetobacter baumannii; experiment: Antibacterial activity against clinical isolates of Acinetobacter baumannii after 18 hrs by microdilution method; assay type: functional
[5] = system: Klebsiella pneumoniae; experiment: Antibacterial activity against Klebsiella pneumoniae ATCC 13883 after 18 hrs by microdilution method; assay type: functional; settings: ATCC 13883, 18 h
[6] = system: Klebsiella pneumoniae; experiment: Antibacterial activity against clinical isolates of Klebsiella pneumoniae after 18 hrs by microdilution method; assay type: functional
[7] = system: Pseudomonas aeruginosa; experiment: Antibacterial activity against Pseudomonas aeruginosa ATCC 27853 after 18 hrs by microdilution method; assay type: functional; settings: ATCC 27853, 18 h
[8] = system: Pseudomonas aeruginosa; experiment: Antibacterial activity against clinical isolates of Pseudomonas aeruginosa after 18 hrs by microdilution method; assay type: functional
[9] = system: Staphylococcus aureus; experiment: Antibacterial activity against Staphylococcus aureus ATCC 25923 after 18 hrs by microdilution method; assay type: functional; settings: ATCC 25923, 18 h
[10] = system: Staphylococcus aureus; experiment: Antibacterial activity against clinical isolates of Staphylococcus aureus after 18 hrs by microdilution method; assay type: functional
[11] = system: Escherichia coli; experiment: Bactericidal activity against Escherichia coli ATCC 25922 after 18 hrs by microdilution method; assay type: functional; settings: ATCC 25922, 18 h, read-out: MBC=>99.9
[12] = system: Escherichia coli; experiment: Bactericidal activity against clinical isolates of Escherichia coli after 18 hrs by microdilution method; assay type: functional; settings: read-out: MBC=>99.9
[13] = system: Acinetobacter baumannii; experiment: Bactericidal activity against Acinetobacter baumannii ATCC 19606 after 18 hrs by microdilution method; assay type: functional; settings: ATCC 19606 = CIP 70.34 = JCM 6841, 18 h, read-out: MBC=>99.9
[14] = system: Acinetobacter baumannii; experiment: Bactericidal activity against clinical isolates of Acinetobacter baumannii after 18 hrs by microdilution method; assay type: functional; settings: read-out: MBC=>99.9
[15] = system: Klebsiella pneumoniae; experiment: Bactericidal activity against Klebsiella pneumoniae ATCC 13883 after 18 hrs by microdilution method; assay type: functional; settings: ATCC 13883, 18 h, read-out: MBC=>99.9
[16] = system: Klebsiella pneumoniae; experiment: Bactericidal activity against clinical isolates of Klebsiella pneumoniae after 18 hrs by microdilution method; assay type: functional; settings: read-out: MBC=>99.9
[17] = system: Pseudomonas aeruginosa; experiment: Bactericidal activity against Pseudomonas aeruginosa ATCC 27853 after 18 hrs by microdilution method; assay type: functional; settings: ATCC 27853, 18 h, read-out: MBC=>99.9
[18] = system: Pseudomonas aeruginosa; experiment: Bactericidal activity against clinical isolates of Pseudomonas aeruginosa after 18 hrs by microdilution method; assay type: functional; settings: read-out: MBC=>99.9
[19] = system: Staphylococcus aureus; experiment: Bactericidal activity against Staphylococcus aureus ATCC 25923 after 18 hrs by microdilution method; assay type: functional; settings: ATCC 25923, 18 h, read-out: MBC=>99.9
[20] = system: Staphylococcus aureus; experiment: Bactericidal activity against clinical isolates of Staphylococcus aureus after 18 hrs by microdilution method; assay type: functional; settings: read-out: MBC=>99.9
[21] = Selectivity index, ratio of HC50 for human RBC to MIC for Escherichia coli ATCC 25922
[22] = Selectivity index, ratio of HC50 for human RBC to MIC for Escherichia coli
[23] = Selectivity index, ratio of HC50 for human RBC to MIC for Acinetobacter baumannii ATCC 19606
[24] = Selectivity index, ratio of HC50 for human RBC to MIC for Acinetobacter baumannii
[25] = Selectivity index, ratio of HC50 for human RBC to MIC for Klebsiella pneumoniae ATCC 13883
[26] = Selectivity index, ratio of HC50 for human RBC to MIC for Klebsiella pneumoniae
[27] = Selectivity index, ratio of HC50 for human RBC to MIC for Pseudomonas aeruginosa ATCC 27853
[28] = Selectivity index, ratio of HC50 for human RBC to MIC for Pseudomonas aeruginosa
[29] = Selectivity index, ratio of HC50 for human RBC to MIC for Staphylococcus aureus ATCC 25923
[30] = Selectivity index, ratio of HC50 for human RBC to MIC for Staphylococcus aureus
[31] = system: Escherichia coli; experiment: Growth inhibition of Escherichia coli ATCC 25922 measured every 10 mins for 4 hrs; assay type: functional
[32] = system: Staphylococcus aureus; experiment: Growth inhibition of Staphylococcus aureus ATCC 25923 measured every 10 mins for 4 hrs; assay type: functional
[33] = system: Escherichia coli; experiment: Induction of membrane permeabilization in Escherichia coli ATCC 25922 assessed as bleb formation at MIC after 1 hr by atomic force microscopic method; assay type: functional
[34] = system: Escherichia coli; experiment: Induction of membrane permeabilization in Escherichia coli ATCC 25922 assessed as surface indentations at MIC after 1 hr by atomic force microscopic method; assay type: functional
[35] = system: Escherichia coli; experiment: Induction of membrane permeabilization in Escherichia coli ATCC 25922 assessed as formation of pores/cavities at MIC after 1 hr by atomic force microscopic method; assay type: functional
[36] = system: Escherichia coli; experiment: Induction of membrane permeabilization in Escherichia coli ATCC 25922 assessed as massive cell disruption/collapse at MBC after 1 hr by atomic force microscopic method; assay type: functional
[37] = system: Escherichia coli; experiment: Induction of membrane permeabilization in Escherichia coli ATCC 25922 assessed as loss of pili/flagella at MBC after 1 hr by atomic force microscopic method; assay type: functional
[38] = system: Escherichia coli; experiment: Induction of membrane permeabilization in Escherichia coli ATCC 25922 assessed as incipient damage at 0.25 uM after 1 hr by atomic force microscopic method; assay type: functional
[39] = system: Escherichia coli; experiment: Induction of membrane permeabilization in Escherichia coli ATCC 25922 assessed as massive damage at 0.5 to 1 uM after 1 hr by atomic force microscopic method; assay type: functional
[40] = Genotoxicity in human peripheral blood leukocytes assessed as DNA damage up to 100 uM up to 24 hrs by alkaline comet assay; assay type: toxicity, cell-based; settings: leukocyte
[41] = Cytotoxicity against human peripheral blood leukocytes assessed as cell viability at 50 uM after 4 hrs by acridine orange/ethidium bromide staining based fluorescence microscopic method relative to control; design: species or system Leukocyte; settings: read-out: Activity
[42] = Cytotoxicity against human peripheral blood leukocytes assessed as cell viability at 50 uM after 24 hrs by acridine orange/ethidium bromide staining based fluorescence microscopic method relative to control; design: species or system Leukocyte; settings: read-out: Activity
[43] = Cytotoxicity against human peripheral blood leukocytes assessed as cell viability at 100 uM after 4 hrs by acridine orange/ethidium bromide staining based fluorescence microscopic method relative to control; design: species or system Leukocyte; settings: read-out: Activity
[44] = Cytotoxicity against human peripheral blood leukocytes assessed as cell viability at 100 uM after 24 hrs by acridine orange/ethidium bromide staining based fluorescence microscopic method relative to control; design: species or system Leukocyte; settings: read-out: Activity
[45] = system: Escherichia coli; experiment: Induction of membrane permeabilization in Escherichia coli ATCC 25922 assessed as propidium iodide uptake preincubated up to 60 mins followed by propidium iodide addition by flow cytometry; assay type: functional
[46] = system: Escherichia coli; experiment: Induction of membrane permeabilization in Escherichia coli ATCC 25922 assessed as loss of pili/flagella at MIC after 1 hr by atomic force microscopic method; assay type: functional
[47] = Cytotoxicity against human peripheral blood leukocytes assessed as cell viability at 0.18 uM after 24 hrs by acridine orange/ethidium bromide staining based fluorescence microscopic method relative to control; design: species or system Leukocyte; settings: read-out: Activity

Question: What does the source list for H-KIAKGALKALKIAKVALKAL-NH2?
Answer: MIC [1]: 0.25 to 0.5 µM; MIC [2]: 4 µM; MIC [3]: 0.5 to 1 µM; MIC [4]: 0.5 µM; MIC [5]: 2 µM; MIC [6]: 4 µM; MIC [7]: 2 µM; MIC [8]: 2 to 4 µM; MIC [9]: 8 to 16 µM; MIC [10]: 4 to 8 µM; MBC [11]: 0.5 to 1 µM; MBC [12]: 8 µM; MBC [13]: 1 µM; MBC [14]: 1 µM; MBC [15]: 2 µM; MBC [16]: 8 µM; MBC [17]: 4 µM; MBC [18]: 4 µM; MBC [19]: 8 to 16 µM; MBC [20]: 8 µM; Selectivity Index [21]: 60 to 120; Selectivity Index [22]: 7; Selectivity Index [23]: 30 to 60; Selectivity Index [24]: 60; Selectivity Index [25]: 15; Selectivity Index [26]: 7; Selectivity Index [27]: 15; Selectivity Index [28]: 7 to 15; Selectivity Index [29]: 2 to 4; Selectivity Index [30]: 4 to 8; IC50 [31]: 350 nM; IC50 [32]: 800 nM; Activity [33]: Active; Activity [34]: Active; Activity [35]: Active; Activity [36]: Active; Activity [37]: Active; Activity [38]: Active; Activity [39]: Active; Activity [40]: Non-Toxic; viability at 4 h, 50 µM [41]: 92%; viability at 24 h, 50 µM [42]: 92%; viability at 4 h, 100 µM [43]: 89%; viability at 24 h, 100 µM [44]: 83%; IC50 [45]: 500 nM

Question: With `CC[C@H](C)[C@H](NC(=O)CN)C(=O)NCC(=O)N[C@@H](C)C(=O)N[C@H](C(=O)N[C@@H](CC(C)C)C(=O)N[C@@H](CCCCN)C(=O)N[C@H](C(=O)N[C@@H](CC(C)C)C(=O)N[C@H](C(=O)N[C@H](C(=O)NCC(=O)N[C@@H](CC(C)C)C(=O)N1CCC[C@H]1C(=O)N[C@@H](C)C(=O)N[C@@H](CC(C)C)C(=O)N[C@H](C(=O)N[C@@H](CO)C(=O)N[C@@H](Cc1c[nH]c2ccccc12)C(=O)N[C@H](C(=O)N[C@@H](CCCCN)C(=O)N[C@@H](CCCNC(=N)N)C(=O)N[C@@H](CCCCN)C(=O)N[C@@H](CCCNC(=N)N)C(=O)N[C@@H](CCC(N)=O)C(=O)N[C@@H](CCC(N)=O)C(N)=O)[C@@H](C)CC)[C@@H](C)CC)[C@@H](C)O)[C@@H](C)O)C(C)C)C(C)C` [MELITTIN] as the compound, how does the MBC [11] read?
Answer: The MBC was 20 µM (≈ 56.9 µg/mL).

Question: And the Activity [37]?
Answer: The Activity was “Active”.

Question: What about the Activity [46] of the same compound?
Answer: Its Activity is “Active”.

Question: And the viability at 24 h, 0.18 µM [47]?
Answer: Its viability at 24 h, 0.18 µM is 60%.
